Experimental findings from publication PMC8493801, “Exploring the Monoterpene Indole Alkaloid Scaffold for Reversing P-Glycoprotein-Mediated Multidrug Resistance in Cancer” (Pharmaceuticals, 2021) are described below.

SMILES strings stand for the structures. A value given as a limit tells only on which side of the number the result lay.

One data set has as its system sensitive L5178Y mouse T-lymphoma cells (PAR). The experiment in a line: MTT antiproliferative assay, sensitive cells. The format is cell-based. As to conditions: 72 h, mean ± SD. As for the experimental part: (§1) Non-cancer mouse embryonic fibroblasts (NIH/3T3) were also used.
(§2) L5178Y mouse T-lymphoma cells (ECACC catalog no. 87111908, US FDA, Silver Spring, MD, USA) were transfected with the pHa MDR1/A retrovirus as previously reported. The ABCB1 (P-gp) overexpressing cells were selected by culturing the infected cells with 60 ng/mL of colchicine (Sigma-Aldrich Chemie GmbH, Steinheim, Germany) to preserve the MDR phenotype. L5178Y (parental, PAR) mouse T-cell lymphoma cells and the human ABCB1-transfected subline were cultured in McCoy’s 5A supplemented with 10% heat-inactivated horse serum, 100 U/L L-glutamine, and 100 mg/L penicillin-streptomycin mixture, all obtained from Sigma-Aldrich. The mouse embryonic fibroblast (NIH 3T3) cell line was purchased from ATCC (CRL-1658) and was cultured in DMEM medium supplemented with 10% fetal bovine serum. These adherent cells were detached using 0.25% trypsin and 0.02% EDTA for 5 min at 37 °C. Before the antiproliferative assay using NIH 3T3 cell line, the cells were seeded in untreated 96-well flat bottomed microtiter plates, following a 4 h incubation period in a humidified atmosphere (5% CO2, 95% air) at 37 °C.
The assay was performed according to the previously applied experimental settings.
(Tetrazolium dyes change colour on reduction, which living cells bring about.)
As for `N.N.[Cl][Pt][Cl]` [Cisplatin, reference compound], the IC50 amounted to 8.16 ± 1.7 µM.
For `CC[C@H]1CN(C)[C@H]2Cc3c([nH]c4ccccc34)C(=O)C[C@H]1C2C(=O)OC` (stereo partly drawn) [Compound 1, Dregamine], the IC50 was 37.2 ± 4.99 µM.
The compound `CCCC=NN=C1CC2C(CC)CN(C)C(Cc3c1[nH]c1ccccc31)C2C(=O)OC` (stereo not drawn) [Compound 3, 3-[(butylidene)hydrazineylidene]dregamine] showed an IC50 of 53.1 ± 3.16 µM.
`CCC1CN(C)C2Cc3c([nH]c4ccccc34)C(=NN=Cc3ccccc3Br)CC1C2C(=O)OC` (stereo not drawn) [Compound 4, 3-[(2″-bromobenzylidene)hydrazineylidene]dregamine] yielded an IC50 of 19.1 ± 0.76 µM.
Still for that read-out and setting: with `CCC1CN(C)C2Cc3c([nH]c4ccccc34)C(=NN=Cc3ccccc3O)CC1C2C(=O)OC` (stereo not drawn) [Compound 5, 3-[(2″-hydroxybenzylidene)hydrazineylidene]dregamine] the figure was 14.8 ± 1.23 µM; with `CCC1CN(C)C2Cc3c([nH]c4ccccc34)C(=NN=Cc3cccc([N+](=O)[O-])c3)CC1C2C(=O)OC` (stereo not drawn) [Compound 6, 3-[(3″-nitrobenzylidene)hydrazineylidene]dregamine], 11.9 ± 1.09 µM; with `CCC1CN(C)C2Cc3c([nH]c4ccccc34)C(=NN=Cc3cccc(OC)c3)CC1C2C(=O)OC` (stereo not drawn) [Compound 7, 3-[(3″-methoxybenzylidene)hydrazineylidene]dregamine], 13.1 ± 0.74 µM.

In a further data set the test system is mouse embryonic fibroblasts (NIH/3T3). As to the kind of experiment: MTT antiproliferative assay, non-cancer cells. The format is cell-based. Particulars: IC50 NIH/3T3 / IC50 MDR. As for the experimental part: as §1
In addition, the antiproliferative activity of the compounds was also evaluated on non-cancerous mouse embryonic fibroblast cells (NIH/3T3), whose values were compared with those of PAR and MDR cells by evaluation of the selective index (SI) values. […] The highest selective index values (SIC/A = 9.39; SIC/B = 10.79) were found for the derivative bearing the trimethoxyphenyl substituent (17).
as §2
With `CC[C@H]1CN(C)[C@H]2Cc3c([nH]c4ccccc34)C(=O)C[C@H]1C2C(=O)OC` (stereo partly drawn) [Compound 1, Dregamine], the “SI C/B (Selectivity Index)” value is listed as >4.35.
Still for that read-out and setting: in the case of `CCCC=NN=C1CC2C(CC)CN(C)C(Cc3c1[nH]c1ccccc31)C2C(=O)OC` (stereo not drawn) [Compound 3, 3-[(butylidene)hydrazineylidene]dregamine] it was >3.17; in that of `CCC1CN(C)C2Cc3c([nH]c4ccccc34)C(=NN=Cc3ccccc3Br)CC1C2C(=O)OC` (stereo not drawn) [Compound 4, 3-[(2″-bromobenzylidene)hydrazineylidene]dregamine], 3.22; in that of `CCC1CN(C)C2Cc3c([nH]c4ccccc34)C(=NN=Cc3ccccc3O)CC1C2C(=O)OC` (stereo not drawn) [Compound 5, 3-[(2″-hydroxybenzylidene)hydrazineylidene]dregamine], 2.12.
In the case of `CCC1CN(C)C2Cc3c([nH]c4ccccc34)C(=NN=Cc3cccc([N+](=O)[O-])c3)CC1C2C(=O)OC` (stereo not drawn) [Compound 6, 3-[(3″-nitrobenzylidene)hydrazineylidene]dregamine], the “SI C/B (Selectivity Index)” value was 1.65.
Consider `CCC1CN(C)C2Cc3c([nH]c4ccccc34)C(=NN=Cc3cccc(OC)c3)CC1C2C(=O)OC` (stereo not drawn) [Compound 7, 3-[(3″-methoxybenzylidene)hydrazineylidene]dregamine], for which the “SI C/B (Selectivity Index)” value is reported as 2.61.

Still in this data set, the particulars now being: IC50 NIH/3T3 / IC50 PAR.
For the compound `CC[C@H]1CN(C)[C@H]2Cc3c([nH]c4ccccc34)C(=O)C[C@H]1C2C(=O)OC` (stereo partly drawn) [Compound 1, Dregamine], the “SI C/A (Selectivity Index)” value is >2.69.
As to `CCCC=NN=C1CC2C(CC)CN(C)C(Cc3c1[nH]c1ccccc31)C2C(=O)OC` (stereo not drawn) [Compound 3, 3-[(butylidene)hydrazineylidene]dregamine], the “SI C/A (Selectivity Index)” value was >1.88.
As to `CCC1CN(C)C2Cc3c([nH]c4ccccc34)C(=NN=Cc3ccccc3Br)CC1C2C(=O)OC` (stereo not drawn) [Compound 4, 3-[(2″-bromobenzylidene)hydrazineylidene]dregamine], the “SI C/A (Selectivity Index)” value came to 1.83.
Turning to `CCC1CN(C)C2Cc3c([nH]c4ccccc34)C(=NN=Cc3ccccc3O)CC1C2C(=O)OC` (stereo not drawn) [Compound 5, 3-[(2″-hydroxybenzylidene)hydrazineylidene]dregamine], the “SI C/A (Selectivity Index)” value worked out at 0.86.
Same read-out and setting: in the case of `CCC1CN(C)C2Cc3c([nH]c4ccccc34)C(=NN=Cc3cccc([N+](=O)[O-])c3)CC1C2C(=O)OC` (stereo not drawn) [Compound 6, 3-[(3″-nitrobenzylidene)hydrazineylidene]dregamine] it was 1.21; in that of `CCC1CN(C)C2Cc3c([nH]c4ccccc34)C(=NN=Cc3cccc(OC)c3)CC1C2C(=O)OC` (stereo not drawn) [Compound 7, 3-[(3″-methoxybenzylidene)hydrazineylidene]dregamine], 0.92.

The same data set, now with this note: NIH3T3; non-cancer mouse embryonic fibroblasts, MTT; read-out: IC50 NIH/3T3 (C).
Regarding `CC[C@H]1CN(C)[C@H]2Cc3c([nH]c4ccccc34)C(=O)C[C@H]1C2C(=O)OC` (stereo partly drawn) [Compound 1, Dregamine], the IC50 was > 100 µM.
With `CCCC=NN=C1CC2C(CC)CN(C)C(Cc3c1[nH]c1ccccc31)C2C(=O)OC` (stereo not drawn) [Compound 3, 3-[(butylidene)hydrazineylidene]dregamine], the IC50 was > 100 µM.
For the compound `CCC1CN(C)C2Cc3c([nH]c4ccccc34)C(=NN=Cc3ccccc3Br)CC1C2C(=O)OC` (stereo not drawn) [Compound 4, 3-[(2″-bromobenzylidene)hydrazineylidene]dregamine], the IC50 worked out at 34.9 ± 5.63 µM.
On the same count and under the same terms, in the case of `CCC1CN(C)C2Cc3c([nH]c4ccccc34)C(=NN=Cc3ccccc3O)CC1C2C(=O)OC` (stereo not drawn) [Compound 5, 3-[(2″-hydroxybenzylidene)hydrazineylidene]dregamine] it was 12.7 ± 2.29 µM.
As for `CCC1CN(C)C2Cc3c([nH]c4ccccc34)C(=NN=Cc3cccc([N+](=O)[O-])c3)CC1C2C(=O)OC` (stereo not drawn) [Compound 6, 3-[(3″-nitrobenzylidene)hydrazineylidene]dregamine], the IC50 is 14.4 ± 1.36 µM.
Same read-out and setting: with `CCC1CN(C)C2Cc3c([nH]c4ccccc34)C(=NN=Cc3cccc(OC)c3)CC1C2C(=O)OC` (stereo not drawn) [Compound 7, 3-[(3″-methoxybenzylidene)hydrazineylidene]dregamine] the figure was 12.1 ± 1.4 µM.

The same data set, now with this note: non-cancer mouse embryonic fibroblasts, MTT; read-out: IC50 NIH/3T3 (C).
As for `N.N.[Cl][Pt][Cl]` [Cisplatin, reference compound], the IC50 turned out to be 1.06 ± 0.02 µM.

Another data set has as its system human ABCB1-transfected L5178Y mouse lymphoma cells. As to the kind of experiment: Checkerboard combination assay with doxorubicin. The format is cell-based. Also noted: key to CI at ED50 (combination index): CI <1 synergy, =1 additive, >1 antagonism. As to conditions: MDR cells. As for the experimental part: The in vitro interactions between the compounds and the well-known antitumor drug and P-gp substrate, doxorubicin, were evaluated in a combination chemotherapy model on human ABCB1-transfected mouse T-lymphoma cells. The nature of drug–drug interactions was assessed by determination of the combination index (CI) using the Chou and Talalay method (Figure 1), and therefore evaluated as synergistic (CI < 1), additive (CI = 1), or antagonistic (CI > 1).
Doxorubicin (2 mg/mL, Teva Pharmaceuticals, Budapest, Hungary) was serially diluted horizontally in 100 µL as previously described, starting with 8.6 µM. The resistance modifier was subsequently diluted vertically in 50 µL; the starting concentration was determined based on the IC50. […] The checkerboard plates were kept for 72 h at 37 °C in a CO2 incubator, and at the end of the incubation period, the cell growth was determined by MTT staining method, as described earlier. Drug interactions were evaluated using Calcusyn software. Each dose–response curve (for individual agents as well as combinations) was fit to a linear model using the median effect equation in order to obtain the median effect value (corresponding to the IC50) and slope (m). The goodness-of-fit was assessed using the linear correlation coefficient, r, and only data from analysis with r > 0.90 were presented. The extent of interaction between drugs was expressed using the combination index, in which a CI value close to 1 indicates additivity, while a CI < 1 is defined as synergy and a CI > 1 as antagonism.
Turning to `CCCC=NN=C1CC2C(CC)CN(C)C(Cc3c1[nH]c1ccccc31)C2C(=O)OC` (stereo not drawn) [Compound 3, 3-[(butylidene)hydrazineylidene]dregamine], the Interaction entry is recorded as “Synergism”.
For `CCC1CN(C)C2Cc3c([nH]c4ccccc34)C(=NN=Cc3ccccc3O)CC1C2C(=O)OC` (stereo not drawn) [Compound 5, 3-[(2″-hydroxybenzylidene)hydrazineylidene]dregamine], the Interaction result was “Strong Synergism”.
On the same count and under the same terms, in the case of `CCC1CN(C)C2Cc3c([nH]c4ccccc34)C(=NN=Cc3cccc([N+](=O)[O-])c3)CC1C2C(=O)OC` (stereo not drawn) [Compound 6, 3-[(3″-nitrobenzylidene)hydrazineylidene]dregamine] it was “Strong Synergism”.
Consider `CCC1CN(C)C2Cc3c([nH]c4ccccc34)C(=NN=Cc3cccc(OC)c3)CC1C2C(=O)OC` (stereo not drawn) [Compound 7, 3-[(3″-methoxybenzylidene)hydrazineylidene]dregamine], for which the Interaction entry was “Strong Synergism”.

The data set is the same for the next values; noted with them: best ratio, MDR cells.
In the case of `CC[C@H]1CN(C)[C@H]2Cc3c([nH]c4ccccc34)C(=O)C[C@H]1C2C(=O)OC` (stereo partly drawn) [Compound 1, Dregamine], the “CI at ED50 (combination index)” value was 0.756.
Consider `CCCC=NN=C1CC2C(CC)CN(C)C(Cc3c1[nH]c1ccccc31)C2C(=O)OC` (stereo not drawn) [Compound 3, 3-[(butylidene)hydrazineylidene]dregamine], for which the “CI at ED50 (combination index)” value came out at 0.305.
On to `CCC1CN(C)C2Cc3c([nH]c4ccccc34)C(=NN=Cc3ccccc3O)CC1C2C(=O)OC` (stereo not drawn) [Compound 5, 3-[(2″-hydroxybenzylidene)hydrazineylidene]dregamine], for which the “CI at ED50 (combination index)” value was determined as 0.166.
On the same count and under the same terms, in the case of `CCC1CN(C)C2Cc3c([nH]c4ccccc34)C(=NN=Cc3cccc([N+](=O)[O-])c3)CC1C2C(=O)OC` (stereo not drawn) [Compound 6, 3-[(3″-nitrobenzylidene)hydrazineylidene]dregamine] it was 0.279; in that of `CCC1CN(C)C2Cc3c([nH]c4ccccc34)C(=NN=Cc3cccc(OC)c3)CC1C2C(=O)OC` (stereo not drawn) [Compound 7, 3-[(3″-methoxybenzylidene)hydrazineylidene]dregamine], 0.152.

Another data set concerns human ABCB1-gene transfected L5178Y subline (MDR).
Experiment: not given
Conditions: not given
`CC[C@H]1CN(C)[C@H]2Cc3c([nH]c4ccccc34)C(=O)C[C@H]1C2C(=O)OC` (stereo partly drawn) [Compound 1, Dregamine] returned an IC50 of 23 ± 0.48 µM.
The same measure, in the same setting: with `CCCC=NN=C1CC2C(CC)CN(C)C(Cc3c1[nH]c1ccccc31)C2C(=O)OC` (stereo not drawn) [Compound 3, 3-[(butylidene)hydrazineylidene]dregamine] the figure was 31.5 ± 1.84 µM; with `CCC1CN(C)C2Cc3c([nH]c4ccccc34)C(=NN=Cc3ccccc3Br)CC1C2C(=O)OC` (stereo not drawn) [Compound 4, 3-[(2″-bromobenzylidene)hydrazineylidene]dregamine], 10.9 ± 1.34 µM; with `CCC1CN(C)C2Cc3c([nH]c4ccccc34)C(=NN=Cc3ccccc3O)CC1C2C(=O)OC` (stereo not drawn) [Compound 5, 3-[(2″-hydroxybenzylidene)hydrazineylidene]dregamine], 5.96 ± 0.26 µM.
In the case of `CCC1CN(C)C2Cc3c([nH]c4ccccc34)C(=NN=Cc3cccc([N+](=O)[O-])c3)CC1C2C(=O)OC` (stereo not drawn) [Compound 6, 3-[(3″-nitrobenzylidene)hydrazineylidene]dregamine], the IC50 came out at 8.72 ± 0.52 µM.
The same measure, in the same setting: with `CCC1CN(C)C2Cc3c([nH]c4ccccc34)C(=NN=Cc3cccc(OC)c3)CC1C2C(=O)OC` (stereo not drawn) [Compound 7, 3-[(3″-methoxybenzylidene)hydrazineylidene]dregamine] the figure was 4.62 ± 0.14 µM.

The same data set, now with this note: RR ≤ 0.5 means CS effect.
Take `CC[C@H]1CN(C)[C@H]2Cc3c([nH]c4ccccc34)C(=O)C[C@H]1C2C(=O)OC` (stereo partly drawn) [Compound 1, Dregamine]: the “RR (relative resistance ratio) = IC50MDR/IC50PAR” value is recorded as 0.62.
The same measure, in the same setting: in the case of `CCCC=NN=C1CC2C(CC)CN(C)C(Cc3c1[nH]c1ccccc31)C2C(=O)OC` (stereo not drawn) [Compound 3, 3-[(butylidene)hydrazineylidene]dregamine] it was 0.59; in that of `CCC1CN(C)C2Cc3c([nH]c4ccccc34)C(=NN=Cc3ccccc3Br)CC1C2C(=O)OC` (stereo not drawn) [Compound 4, 3-[(2″-bromobenzylidene)hydrazineylidene]dregamine], 0.57.
Still for that read-out and setting: with `CCC1CN(C)C2Cc3c([nH]c4ccccc34)C(=NN=Cc3cccc([N+](=O)[O-])c3)CC1C2C(=O)OC` (stereo not drawn) [Compound 6, 3-[(3″-nitrobenzylidene)hydrazineylidene]dregamine] the figure was 0.73.
